Data published in article PMC3751846, “BET Inhibition Silences Expression of MYCN and BCL2 and Induces Cytotoxicity in Neuroblastoma Tumor Models” (PLoS ONE, 2013).
Read-outs that look alike come from different tables or passages of the source.

Experiments:
Experiment in all cases: cells
SK-N-BE(2) [1] = system: SK-N-BE(2); set-up: species or system neuroblastoma cell lines; 6 day growth-death assay, CellTiter-Fluor read-out, mid-point of growth window (DMSO to T0); conditions: Homo sapiens, SKNBE2, 144 h; CellTiter-Fluor, 6 days; read-out: gIC50 CellTiter-Fluor
Experimental: (§1) Cell line growth-death assays were performed as described, with a few modifications. Briefly, cells were seeded into 384-well or 96-well plates at a density optimized for 6 days of growth. The following day, T0 measurements were taken using CellTiter-Glo (CTG; Promega, Madison, WI), CellTiter-Fluor (Promega), or CyQuant Direct (Life Technologies), following the manufacturer’s instructions. Plates were read on an Envision (PerkinElmer, Waltham, MA), Safire 2 (Tecan, Durham, NC), or SpectraMax Gemini EM (Molecular Devices, Sunnyvale, CA) plate reader. […] Cells were incubated for 6 days and developed as described above. Results were plotted as a percentage of the T0 value, normalized to 100%, versus concentration of compound. A 4-parameter equation was used to generate concentration response curves. Growth IC50 (gIC50) values were calculated at the mid-point of the growth window (between DMSO and T0 values). Ymin-T0 values were calculated by subtracting the T0 value (100%) from the Ymin value on the curve, and are a measure of net population cell growth or death.

SK-N-AS [2] = system: SK-N-AS; set-up: species or system neuroblastoma cell lines; 6 day growth-death assay, CellTiter-Fluor read-out, mid-point of growth window (DMSO to T0); conditions: Homo sapiens, SK-N-AS, 144 h; CellTiter-Fluor, 6 days; read-out: gIC50 CellTiter-Fluor
Experimental: as §1

LA1-5s [3] = system: LA1-5s; set-up: species or system neuroblastoma cell lines; 6 day growth-death assay, CellTiter-Fluor read-out, mid-point of growth window (DMSO to T0); conditions: Neuroblastoma cell, 144 h; CellTiter-Fluor, 6 days; read-out: gIC50 CellTiter-Fluor
Experimental: as §1

CHP-212 [4] = system: CHP-212; set-up: species or system neuroblastoma cell lines; 6 day growth-death assay, CellTiter-Fluor read-out, mid-point of growth window (DMSO to T0); conditions: Homo sapiens, CHP-212, 144 h; CellTiter-Fluor, 6 days; read-out: gIC50 CellTiter-Fluor
Experimental: as §1

SK-N-BE(2) [5] = system: SK-N-BE(2); set-up: species or system neuroblastoma cell lines; 6 day growth-death assay, CyQuant Direct read-out, mid-point of growth window (DMSO to T0); conditions: Homo sapiens, SKNBE2, 144 h; CyQuant, 6 days; read-out: gIC50 CyQuant
Experimental: as §1

SK-N-AS [6] = system: SK-N-AS; set-up: species or system neuroblastoma cell lines; 6 day growth-death assay, CyQuant Direct read-out, mid-point of growth window (DMSO to T0); conditions: Homo sapiens, SK-N-AS, 144 h; CyQuant, 6 days; read-out: gIC50 CyQuant
Experimental: as §1

LA1-5s [7] = system: LA1-5s; set-up: species or system neuroblastoma cell lines; 6 day growth-death assay, CyQuant Direct read-out, mid-point of growth window (DMSO to T0); conditions: Neuroblastoma cell, 144 h; CyQuant, 6 days; read-out: gIC50 CyQuant
Experimental: as §1

CHP-212 [8] = system: CHP-212; set-up: species or system neuroblastoma cell lines; 6 day growth-death assay, CyQuant Direct read-out, mid-point of growth window (DMSO to T0); conditions: Homo sapiens, CHP-212, 144 h; CyQuant, 6 days; read-out: gIC50 CyQuant
Experimental: as §1

## CC(=O)N1c2ccc(-c3ccc(C(=O)O)cc3)cc2[C@H](Nc2ccc(Cl)cc2)C[C@@H]1C [I-BET726]
SK-N-BE(2) [1]
  GI50: 20 nM
SK-N-AS [2]
  GI50: 130 nM
LA1-5s [3]
  GI50: 25 nM
CHP-212 [4]
  GI50: 30 nM
SK-N-BE(2) [5]
  GI50: 80 nM
SK-N-AS [6]
  GI50: 135 nM
LA1-5s [7]
  GI50: 10 nM
CHP-212 [8]
  GI50: 10 nM
